Experimental data taken from patent publication US10857128B2, “Methods and compositions for treating inflammatory diseases” (Helmholtz Zentrum München Deutsches Forschungszentrum für …, priority 2017, dated 2020).

What was measured:
[1] = tested on: CCL17 secretion of human Hodgkin lymphoma KM-H2 cells; assay: CCL17 secretion bioassay with KM-H2 cells (ELISA); format: cell-based; settings: different concentrations, 24 h
Method: Human T cell line KM-H2. The human Hodgkin lymphoma T cell line (KM-H2) was purchased from the Leibniz Institute DSMZ-German Collection of Microorganisms and Cell Cultures, Braunschweig, Germany. 3-5×10^6 KM-H2 cells were grown in 4 mL RPMI 1640 per well in 6-well-plates (Nunc, Wiesbaden, Germany). All eukaryotic cells were cultured in 5% CO2 at 37° C. (HeraCell 240 and Heraeus BDD 6220, Thermo Fisher Scientific, Waltham, USA). Viability of cells after treatment with bacterial supernatants was assessed by trypan blue, 7-AAD and CellTiter-Blue® staining. (FIG. 9A-C)
Quantification of CCL17 and cytokines in eukaryotic cell culture supernatants. CCL17 was quantified in cell culture supernatants of KM-H2 cells using ELISA reagent Quantikine CCL17/TARC, (R&D Systems, Minneapolis, USA) according to the manufacturer's instructions (ELISA reader MRXII, Thermo Fisher Scientifc, Waltham, USA).
Bioassays for screening for immune modulatory activity in probiotic supernatants. Two biological assays based on down-modulation of costimulatory molecules on human DCs, and of CCL17-secretion by a human Hodgkin lymphoma T cell line (KM-H2) were set up. […]
Similarly, 200 μL supernatants were added to 3-5×10^6 KM-H2 cells for 24 h. Supernatants were collected from KM-H2 by centrifugation and stored at −80° C. until quantification of CCL17. […]

[2] = Oral supplementation of mice with D-tryptophan in drinking water: serum levels and tolerability; format: in vivo, Balb/c mice; settings: 14 days
Method: Enantiomeric separation of D-Tryptophan in murine sera. The investigator (C.M.) was blinded to the murine intervention groups. Due to the abundance of interfering proteins a protein precipitation was done. For this purpose the sera were thawed on ice and 20 μL of each sample were vigorously shaken with 80 μL 4° C. methanol (Chromasolve, Fluka, St. Louis, USA) and centrifuged (15,000×g at 4° C. for 15 min). The supernatants were taken, evaporated and resolved in water before injection. The derivation was performed as described for bacterial supernatants with some modifications as recently published (Müller et al., J Chromatogr A. 2014 Jan. 10; 1324:109-14). For quantification human serum was spiked with different concentrations (0.005-0.15 μg/mL) of D-Tryptophan and randomly analyzed.
Animals and oral supplementation with D-tryptophan. […]

Q: Which “immune activity of synthetic tryptophan isomers in the CCL17 bioassay” value [1] does the source give for `N[C@H](Cc1c[nH]c2ccccc12)C(=O)O` [D-tryptophan] here?
A: dose dependent immune activity

Q: And the “changes in behavior or body weight” value ([2]; 1.8 or 18 mg/dL in drinking water, compared to controls)?
A: No changes

Q: And the D-tryptophan serum levels ([2]; oral 0.9 mg/day in drinking water)?
A: increased D-tryptophan serum levels significantly
